From patent US12479840B2, “HMG-CoA reductase degradation inducing compound” (Uppthera, priority 2020, dated 2025)

biological target: T1, HMG-CoA reductase (Homo sapiens, UniProt P04035); assay: HMG-CoA reductase (HMGCR) degradation in HepG2 cells by western blotting; format: cell-based; conditions: treated for 18 hours, ratio of HMG-CoA reductase to GAPDH, read-out: DC50
T1 construct: endogenous in cells; host or cells: HepG2 (Korea Cell Line Bank)
T1 sequence (P04035 1-888): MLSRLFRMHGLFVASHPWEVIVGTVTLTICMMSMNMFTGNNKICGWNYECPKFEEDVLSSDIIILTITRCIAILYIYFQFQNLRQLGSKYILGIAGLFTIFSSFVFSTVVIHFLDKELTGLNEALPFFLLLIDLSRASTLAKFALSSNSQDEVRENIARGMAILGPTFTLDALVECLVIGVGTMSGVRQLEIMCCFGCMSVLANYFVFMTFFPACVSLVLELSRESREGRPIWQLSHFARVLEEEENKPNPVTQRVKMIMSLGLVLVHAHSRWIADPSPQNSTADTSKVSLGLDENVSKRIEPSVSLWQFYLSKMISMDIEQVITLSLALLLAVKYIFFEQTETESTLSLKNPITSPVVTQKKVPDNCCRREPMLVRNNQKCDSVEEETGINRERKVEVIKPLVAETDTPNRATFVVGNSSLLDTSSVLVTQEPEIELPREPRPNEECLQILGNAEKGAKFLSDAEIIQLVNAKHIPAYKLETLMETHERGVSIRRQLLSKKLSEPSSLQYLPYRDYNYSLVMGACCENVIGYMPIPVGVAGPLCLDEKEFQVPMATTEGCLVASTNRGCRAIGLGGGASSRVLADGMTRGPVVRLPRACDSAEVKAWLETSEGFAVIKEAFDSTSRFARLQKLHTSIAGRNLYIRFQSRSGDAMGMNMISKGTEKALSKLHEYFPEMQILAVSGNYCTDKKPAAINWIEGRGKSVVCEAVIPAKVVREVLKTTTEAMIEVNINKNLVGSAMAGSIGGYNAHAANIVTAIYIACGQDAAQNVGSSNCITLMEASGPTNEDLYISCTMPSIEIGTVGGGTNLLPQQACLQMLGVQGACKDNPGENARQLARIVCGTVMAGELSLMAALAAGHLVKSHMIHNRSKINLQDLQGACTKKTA
Summary of the method: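 Western blot read-out: HMGCR protein probed (1:500, 16 hours at 4° C) alongside GAPDH loading control on 15 μg BCA-normalised RIPA lysates. Lysates came from HepG2 cells (P105–P110) exposed for 18 hours to a 10-point, three-fold series starting at 3 μM.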

Structure (SMILES) | DC50 [nM]
C[C@H]1C=C2C=C[C@H](C)[C@H](CC[C@@H]3C[C@@H](O[Si](C)(C)C(C)(C)C)CC(=O)O3)[C@H]2[C@@H](OC(=O)NCCCCCNc2cccc3c2C(=O)N(C2CCC(=O)NC2=O)C3=O)C1 (stereo partly drawn) [Compound 51, (1S,3R,7S,8S,8aR)-8-(2-((2R,4R)-4-((tert-butyldimethylsilyl)oxy)-6-oxotetrahydro-2H-pyran-2-yl)ethyl)-3,7-dimethyl-1,2,3,7,8,8a-hexahydronaphthalen-1-yl (5-((2-(2,6-dioxopiperidin-3-yl)-1,3-dioxoisoindolin-4-yl)amino)pentyl)carbamate] | < 50
CN[C@@H](C)C(=O)N[C@H](C(=O)N1CCC[C@H]1c1nc(C(=O)c2cccc(OCCOCCOCCOCCNC(=O)O[C@H]3C[C@@H](C)C=C4C=C[C@H](C)[C@H](CC[C@@H]5C[C@@H](O[Si](C)(C)C(C)(C)C)CC(=O)O5)[C@H]43)c2)cs1)C1CCCCC1 [Compound 37, (1S,3R,7S,8S,8aR)-8-(2-((2R,4R)-4-((tert-butyldimethylsilyl)oxy)-6-oxotetrahydro-2H-pyran-2-yl)ethyl)-3,7-dimethyl-1,2,3,7,8,8a-hexahydronaphthalen-1-yl (2-(2-(2-(2-(3-(2-((S)-1-((S)-2-cyclohexyl-2-((S)-2-(methylamino)propanamido)acetyl)pyrrolidin-2-yl)thiazole-4-carbonyl)phenoxy)ethoxy)ethoxy)ethoxy)ethyl)carbamate] | < 50
CN[C@@H](C)C(=O)N[C@H](C(=O)N1CCC[C@H]1c1nc(C(=O)c2cccc(OCCOCCOCCOCCOCCNC(=O)O[C@H]3C[C@@H](C)C=C4C=C[C@H](C)[C@H](CC[C@@H]5C[C@@H](O)CC(=O)O5)[C@H]43)c2)cs1)C1CCCCC1 [Compound 33, (1S,3R,7S,8S,8aR)-8-(2-((2R,4R)-4-hydroxy-6-oxotetrahydro-2H-pyran-2-yl)ethyl)-3,7-dimethyl-1,2,3,7,8,8a-hexahydronaphthalen-1-yl (14-(3-(2-((S)-1-((S)-2-cyclohexyl-2-((S)-2-(methylamino)propanamido)acetyl)pyrrolidin-2-yl)thiazole-4-carbonyl)phenoxy)-3,6,9,12-tetraoxatetradecyl)carbamate] | < 50
CN[C@@H](C)C(=O)N[C@H](C(=O)N1CCC[C@H]1c1nc(C(=O)c2cccc(OCCOCCOCCOCCOCCNC(=O)O[C@H]3C[C@@H](C)C=C4C=C[C@H](C)[C@H](CC[C@@H]5C[C@@H](O[Si](C)(C)C(C)(C)C)CC(=O)O5)[C@H]43)c2)cs1)C1CCCCC1 [Compound 38, (1S,3R,7S,8S,8aR)-8-(2-((2R,4R)-4-((tert-butyldimethylsilyl)oxy)-6-oxotetrahydro-2H-pyran-2-yl)ethyl)-3,7-dimethyl-1,2,3,7,8,8a-hexahydronaphthalen-1-yl (14-(3-(2-((S)-1-((S)-2-cyclohexyl-2-((S)-2-(methylamino)propanamido)acetyl)pyrrolidin-2-yl)thiazole-4-carbonyl)phenoxy)-3,6,9,12-tetraoxatetradecyl)carbamate] | < 50
C[C@H]1C=C2C=C[C@H](C)[C@H](CC[C@@H]3C[C@@H](O[Si](C)(C)C(C)(C)C)CC(=O)O3)[C@H]2[C@@H](OC(=O)NCCOCCCOCCNc2cccc3c2C(=O)N(C2CCC(=O)NC2=O)C3=O)C1 (stereo partly drawn) [Compound 90, (1S,3R,7S,8S,8aR)-8-(2-((2R,4R)-4-((tert-butyldimethylsilyl)oxy)-6-oxotetrahydro-2H-pyran-2-yl)ethyl)-3,7-dimethyl-1,2,3,7,8,8a-hexahydronaphthalen-1-yl (2-(3-(2-((2-(2,6-dioxopiperidin-3-yl)-1,3-dioxoisoindolin-4-yl)amino)ethoxy)propoxy)ethyl)carbamate] | < 50
C[C@H]1C=C2C=C[C@H](C)[C@H](CC[C@@H]3C[C@@H](O)CC(=O)O3)[C@H]2[C@@H](OC(=O)NCCCCCN2CCC(Nc3cccc4c3C(=O)N(C3CCC(=O)NC3=O)C4=O)CC2)C1 (stereo partly drawn) [Compound 126, (1S,3R,7S,8S,8aR)-8-(2-((2R,4R)-4-hydroxy-6-oxotetrahydro-2H-pyran-2-yl)ethyl)-3,7-dimethyl-1,2,3,7,8,8a-hexahydronaphthalen-1-yl (5-(4-((2-(2,6-dioxopiperidin-3-yl)-1,3-dioxoisoindolin-4-yl)amino)piperidin-1-yl)pentyl)carbamate] | < 50

More lines, now with the values ahead:

DC50 [nM] | Structure (SMILES)
< 50 | C[C@H]1C=C2C=C[C@H](C)[C@H](CC[C@@H]3C[C@@H](O)CC(=O)O3)[C@H]2[C@@H](OC(=O)NCCCCCCCCCCCNc2cccc3c2C(=O)N(C2CCC(=O)NC2=O)C3=O)C1 (stereo partly drawn) [Compound 64, (1S,3R,7S,8S,8aR)-8-(2-((2R,4R)-4-hydroxy-6-oxotetrahydro-2H-pyran-2-yl)ethyl)-3,7-dimethyl-1,2,3,7,8,8a-hexahydronaphthalen-1-yl (11-((2-(2,6-dioxopiperidin-3-yl)-1,3-dioxoisoindolin-4-yl)amino)undecyl)carbamate]
< 50 | CN[C@@H](C)C(=O)N[C@H](C(=O)N1CCC[C@H]1c1nc(C(=O)c2cccc(OCCOCCOCCOCCNC(=O)O[C@H]3C[C@@H](C)C=C4C=C[C@H](C)[C@H](CC[C@@H]5C[C@@H](O)CC(=O)O5)[C@H]43)c2)cs1)C1CCCCC1 [Compound 32, (1S,3R,7S,8S,8aR)-8-(2-((2R,4R)-4-hydroxy-6-oxotetrahydro-2H-pyran-2-yl)ethyl)-3,7-dimethyl-1,2,3,7,8,8a-hexahydronaphthalen-1-yl (2-(2-(2-(2-(3-(2-((S)-1-((S)-2-cyclohexyl-2-((S)-2-(methylamino)propanamido)acetyl)pyrrolidin-2-yl)thiazole-4-carbonyl)phenoxy)ethoxy)ethoxy)ethoxy)ethyl)carbamate]
< 50 | C[C@H]1C=C2C=C[C@H](C)[C@H](CC[C@@H]3C[C@@H](O)CC(=O)O3)[C@H]2[C@@H](OC(=O)C(C)(C)CCC(=O)NCCOCCOCCOCCOCCOCCOCCNc2cccc3c2C(=O)N(C2CCC(=O)NC2=O)C3=O)C1 (stereo partly drawn) [Compound 6, (1S,3R,7S,8S,8aR)-8-(2-((2R,4R)-4-hydroxy-6-oxotetrahydro-2H-pyran-2-yl)ethyl)-3,7-dimethyl-1,2,3,7,8,8a-hexahydronaphthalen-1-yl 1-((2-(2,6-dioxopiperidin-3-yl)-1,3-dioxoisoindolin-4-yl)amino)-25,25-dimethyl-22-oxo-3,6,9,12,15,18-hexaoxa-21-azahexacosan-26-oate]
< 50 | C[C@H]1C=C2C=C[C@H](C)[C@H](CC[C@@H]3C[C@@H](O)CC(=O)O3)[C@H]2[C@@H](OC(=O)NCCC2CCN(C(=O)COc3cccc4c3C(=O)N(C3CCC(=O)NC3=O)C4=O)CC2)C1 (stereo partly drawn) [Compound 81, (1S,3R,7S,8S,8aR)-8-(2-((2R,4R)-4-hydroxy-6-oxotetrahydro-2H-pyran-2-yl)ethyl)-3,7-dimethyl-1,2,3,7,8,8a-hexahydronaphthalen-1-yl (2-(1-(2-((2-(2,6-dioxopiperidin-3-yl)-1,3-dioxoisoindolin-4-yl)oxy)acetyl)piperidin-4-yl)ethyl)carbamate]
< 50 | Cc1ncsc1-c1ccc(CNC(=O)[C@@H]2C[C@@H](O)CN2C(=O)[C@@H](NC(=O)C2(F)CC2)C(C)(C)C)c(OCCCCCCCCCNC(=O)O[C@H]2C[C@@H](C)C=C3C=C[C@H](C)[C@H](CC[C@@H]4C[C@@H](O)CC(=O)O4)[C@H]32)c1 [Compound 166, (1S,3R,7S,8S,8aR)-8-(2-((2R,4R)-4-hydroxy-6-oxotetrahydro-2H-pyran-2-yl)ethyl)-3,7-dimethyl-1,2,3,7,8,8a-hexahydronaphthalen-1-yl (9-(2-(((2S,4R)-1-((S)-2-(1-fluorocyclopropane-1-carboxamido)-3,3-dimethylbutanoyl)-4-hydroxypyrrolidine-2-carboxamido)methyl)-5-(4-methylthiazol-5-yl)phenoxy)nonyl)carbamate]
< 50 | C[C@H]1C=C2C=C[C@H](C)[C@H](CC[C@@H]3CC=CC(=O)O3)[C@H]2[C@@H](OC(=O)NCCOCCOCCNc2cccc3c2C(=O)N(C2CCC(=O)NC2=O)C3=O)C1 (stereo partly drawn) [Compound 153, (1S,3R,7S,8S,8aR)-3,7-dimethyl-8-(2-((R)-6-oxo-3,6-dihydro-2H-pyran-2-yl)ethyl)-1,2,3,7,8,8a-hexahydronaphthalen-1-yl (2-(2-(2-((2-(2,6-dioxopiperidin-3-yl)-1,3-dioxoisoindolin-4-yl)amino)ethoxy)ethoxy)ethyl)carbamate]
